This note sets out measurements from US20010034322A1, “Taxol-like protein (TALP) and process for preparing the same” (priority 1996, published 2001).

Each structure is given as a SMILES string.

Assay type in all cases: biochemical
In experiment [1] the test system is tubulin. Put plainly: effect of Ca2+ on microtubules assembled by GTP, taxol or TALP. As to conditions: 4 mM CaCl2. The procedure: To investigate effect of Ca^2+ on tubulin polymerization, tubulin was added to 0.1M MES buffer(pH 6.8) free of EGTA, and GTP, taxol or TALP was added, and polymerization of microtubules were carried out at 37° C. for 15 minutes. Then, 4 mM CaCl2 was added to the reaction mixture, and depolymerization of microtubules assembled was measured, with the addition of GTP, taxol or TALP(see: FIG. 5).

Experiment [2] deals with tubulin isolated from bovine brain. Put plainly: coprecipitation of tubulin and TALP (centrifugation, SDS-PAGE of supernatants and pellets). As to conditions: tubulin 0.4 mg/ml, 37° C., 30 minutes. How it is done: To investigate whether TALP promotes microtubule assembly in the same manner as taxol, tubulin isolated from bovine brain was added to 0.1M MES buffer(pH 6.8) to a concentration of 0.4 mg/ml. Then, 2 mM GTP, 10 μM taxol or 4 μM TALP was added to the reaction mixture, and polymerization of microtubules were carried out at 37° C. for 30 minutes. The reaction mixtures were centrifuged for 20 minutes, and the supernatants and the pellets thus obtained were analyzed by 12% SDS-PAGE(see: FIG. 7(A)).
Also, tubulin polymerization was investigated with the variation of TALP concentration. […] In FIGS. 7(A) and 7(B), S and P designate supernatant and pellet, respectively.

The subject of experiment [3] is tubulin. Put plainly: electron microscopic analysis of microtubules. The note with it: tubulin 1 mg/ml, 37° C., 30 minutes. The procedure:
When tubulin polymerization was monitored by measuring the absorbance as in Example 1, increase in the absorbance may occur not only by microtubule assembly but also by the aggregation of tubulins. Thus, in order to confirm that the turbidity change is caused by microtubule assembly, the morphology of the polymers was examined with electron microscopy. Tubulin was added to 0.1M MES buffer to a concentration of 1 mg/ml, and GTP, taxol or TALP was added to a final reaction volume of 250 μl. The reaction mixture was incubated at 37° C. for 30 minutes, and the absorbance change at 350 nm was monitored. At this time, the reaction solutions showing increase in the absorbance were fixed and applied to a carbon-coated grids, and dried. Grids were then stained with 1% uranyl acetate for 5 minutes, washed with distilled water, and dried. And then, they were examined with electron microscope(Hitachi H-600, Japan) at an accelerated voltage of 75 kv.

Experiment [4] has as its system tubulin. The experiment in a line: effect of cold temperature (4° C.) on microtubules assembled by GTP, taxol or TALP. As to conditions: chilled to 4° C. How it is done: To investigate effect of cold temperature on tubulin polymerization, tubulin was added to 0.1M MES buffer(pH 6.8). Then GTP, taxol or TALP was added to the reaction mixture, and polymerization of microtubules were carried out at 37° C. for 15 minutes. Then, the reaction solution was chilled to a temperature of 4° C., and depolymerization of microtubules assembled was measured, with the addition of GTP, taxol or TALP(see: FIG. 6).

The subject of experiment [5] is tubulin. The experiment in a line: tubulin polymerization monitored by turbidity (absorbance at 350 nm). As to conditions: 20 μM taxol; control 2 mM GTP. How it is done: All of the purification steps were carried out under 4° C., and TALP activity was determined by the conventional tubulin polymerization which was monitored by turbidity(see: Gaskin, F. et al., 1974, J. Mol. Biol., 89:737-758): Tubulin prepared according to the method of Hamel et al. or Asnes et al.(see: Hamel E. et al., 1981, Arch. Biochem. Biophys., 209:29-40; Asnes, C. F. and Wilson, L., 1979, Anal. Biochem., 98:64-73) was added to 0.1M MES(2-[N-morpholino]ethane sulfonic acid) buffer(0.1M MES containing 1 mM EGTA and 1 mM MgCl2, pH 6.8) to a final concentration of 1 mg/ml, and TALP containing solution was added to a final reaction volume of 250 μl. The reaction mixture was incubated at 37° C. for 30 minutes, and the change in absorbance at 350 nm was monitored with a Gilford Model 2600 spectrophotometer(Gilford, USA).
Effects of GTP, taxol and TALP on tubulin polymerization were examined in the same manner as described in Example 1.
When 0.5 μM of TALP was added to the reaction mixture, tubulin polymerization occurred twice or more as high as one without TALP(see: FIG. 4).

For the compound `Nc1nc2c(ncn2[C@@H]2O[C@H](COP(=O)(O)OP(=O)(O)OP(=O)(O)O)[C@@H](O)[C@H]2O)c(=O)[nH]1` [GTP], the “microtubules depolymerized by Ca2+” value in the experiment with tubulin [1] (assembled by 2 mM GTP) is on record as “most”. For the same compound, the tubulins polymerized entry in experiment [2] (2 mM GTP) is recorded as “most of tubulins were not polymerized”. Further, in the experiment with tubulin [3], the “morphology of the polymers by electron microscopy” value is on record as “typical microtubules were assembled”. Besides, the “microtubules depolymerized at 4° C.” value in the experiment with tubulin [4] (assembled by 2 mM GTP) is reported as “most”.
Turning to `CC(=O)O[C@H]1C(=O)[C@@]2(C)[C@H]([C@H](OC(=O)c3ccccc3)[C@]3(O)C[C@H](OC(=O)[C@H](O)[C@@H](NC(=O)c4ccccc4)c4ccccc4)C(C)=C1C3(C)C)[C@]1(OC(C)=O)CO[C@@H]1C[C@@H]2O` [taxol], in the experiment on tubulin [1] (assembled by 10 μM taxol), the “microtubules depolymerized by Ca2+” value is 30%. For the same compound, in experiment [2] (10 μM taxol), the tubulins polymerized result is listed as “about 20%”. Also, in the experiment with tubulin [3], the “morphology of the polymers by electron microscopy” value is “typical microtubules were assembled”. Moreover, the “tubulin polymerization, times as high as the control” value in the experiment with tubulin [5] is reported as 2.5 times. For the same compound, in the experiment with tubulin [4] (assembled by 10 μM taxol), the “microtubules depolymerized at 4° C.” value worked out at 25%.
